From publication PMC10154330, “Machine learning-driven multifunctional peptide engineering for sustained ocular drug delivery” (Nature Communications, 2023)
In brackets after ≈: the same amount, converted by molar mass. Ends that are not written are not given here.

What was measured:
[1] = tested on: biotinylated melanin nanoparticles (b-mNPs); assay: Relative binding of drugs to b-mNPs; parameters: species or system Sepia officinalis
Text: (§1) Supplementary Fig. 1 | Characterization of melanin nanoparticles (mNPs) and biotinylated-melanin
(§2) nanoparticles (b-mNPs). a Representative transmission electron microscopes (TEM) images of mNPs and b-
(§3) (black dots, n = 3 per drug group) and b-mNPs (gray squares, n = 3 per drug group). Data are shown as mean ±
(§4) (1 picture or pasted object on this page, not shown here)

[2] = ref 3 of the peer review file, Acheampong et al. 2002; cited from earlier work
Text: 1.5 Brimonidine is applied as eye drops three times per day. […] Why is that? What is the required free brimonidine concentration for activity?

[3] = tested on: melanin nanoparticles (mNPs); assay: Relative binding of drugs to mNPs; parameters: species or system Sepia officinalis
Text: as §1, §2, §3, §4

[4] = Brimonidine in ocular tissues after ICM injection (LC-MS/MS)
Protocol: (§5) For the IOP measurements in normotensive rabbits, Dutch Belted rabbits (2–3 kg) were used (n = 5). IOP was measured with a hand-held rebound tonometer icareTONOVET (Vantaa, Finland) in the awake and gently restrained rabbit. Each rabbit was acclimatized to the IOP measurement procedure for at least 5 days to obtain a stable background IOP reading. A mean of three IOP measurements for an individual eye were taken every other day for 6 days (3 times in total) and used as a baseline value. For the ICM injection procedure, rabbits were anesthetized with ketamine/xylazine and received topical anesthesia with 0.5% proparacaine hydrochloride. A corneal pre-puncture was performed with a 30 G needle, followed with a single bolus ICM injection of 200 µg (mass of brimonidine) of HR97-brimonidine or brimonidine tartrate solution in 100 µL saline using a 28 G needle. After the procedure, topical bacitracin-neomycin-polymyxin ophthalmic ointment was applied to both eyes to prevent infection and dry eyes. On day 7, an ophthalmologist masked to treatment evaluate the HR97-brimonidine injected eyes with the following items: functionality of lids, lashes, conjunctiva, cornea transparency, pigmentation of corneal endothelium, depth of anterior chambers, inflammation, fibrin strands, and symmetry of the lens[113]. […] In a separate study, a corneal pre-puncture was performed with a 30 G needle, followed with a single bolus ICM injection of 200 µg (mass of brimonidine) containing a physical mixture of unconjugated HR97 and brimonidine tartrate (HR97 + brimonidine), the equivalent amount of HR97 peptide alone, or saline alone in 100 µL saline. On day 7, day 14, day 21, and day 28, an ophthalmologist masked to treatment performed the same safety evaluations described above. IOP was measured on days 2, 3, 4, 5, 6, 7, 8, 10, 12, 14, 16, 18, and 20 after the ICM injection, and change in IOP from the baseline (ΔIOP) was reported. The mean of three IOP measurements was taken for each eye by one observer, and then confirmed by a masked observer. Alternatively, a single topical eye drop (Alphagan® P 0.1%, 50 µL) was given (n = 5). The IOP were measured immediately before the topical dosing (0 h), and at 2, 4, 6 and 8 h after the eyedrop administration. For the pharmacokinetics studies, rabbits (n = 4 per group) received a single ICM injection with 200 µg (mass of brimonidine) HR97-brimonidine as described above. Rabbits were sacrificed 1, 7, 14, 28 days after the injection, and iris, aqueous, and retina were collected for measuring the brimonidine concentration.
Brimonidine concentrations in ocular tissues were measured by liquid chromatography-tandem mass spectrometry (LC-MS/MS) as previously described. All samples were collected in pre-weighed tubes and stored at −80 °C until processing for analysis. Tissue samples were homogenized in 100–600 μL 1 × PBS using a Bullet Blender® (Next Advance, Inc, Troy, NY, USA) before extraction. Brimonidine were extracted from 15 to 50 μL of tissue homogenates with 50 μL of acetonitrile containing 50/50/2.5 ng/mL of the internal standards. The top layer was then transferred to an autosampler vial for LC-MS/MS analysis after centrifugation. All ocular tissue samples were analyzed using a 1 × PBS standard curve for brimonidine. […] The column effluent was monitored using a 5500 mass-spectrometric detector (Sciex) using electrospray ionization operating in positive mode. The mobile phase A was water containing 0.1% formic acid and mobile phase B was acetonitrile containing 0.1% formic acid. The gradient started with mobile phase B held at 20% for 0.5 min and increased to 100% over 0.5 min; 100% mobile phase B was held for 1 min and then returned to 20% mobile phase B and allowed to equilibrate for 1 min.

[5] = tested on: intraocular pressure; assay: IOP measurement in normotensive Dutch Belted rabbits; assay type: in vivo; settings: for cumulative IOP change: Brimonidine group
Protocol: as §5

[6] = tested on: melanin nanoparticles (mNPs); assay: In vitro melanin binding assay (binding capacity and Kd, RED device, HPLC); parameters: species or system Sepia officinalis; settings: binding capacity and dissociation constant of ocular drugs, melanin
Protocol: The solutions (400 µL) were then mixed thoroughly with 400 µL of 1 mg/mL mNPs in pH 6.5 PBS solution and transferred to the inner reservoir of the rapid equilibrium dialysis (RED) device inserts (8 K MWCO). The outer reservoir was filled with 800 µL of pH 6.5 PBS solution. The samples were incubated on an orbital shaker with temperature control at 37 °C and 300 rpm for 48 h (n = 3). The solutions from outer reservoir (free drug) were than collected and transferred to an autosampler vial for HPLC analysis (Prominence LC2030, Shimadzu, Columbia, MD) with photodiode-array detection (PDA) system. […] The amount of bound drug was used to calculate the binding capacity (mol drug/mg melanin) and the dissociation constant (Kd) as previously described[20],[34].

[7] = tested on: ARPE-19 cells; assay: Cell viability assay of HR97 peptide (PrestoBlue HS); assay type: cell-based, human; settings: concentrations up to 5 mg/mL, 12 h incubation, n = 5
Protocol: The PrestoBlue^TM HS cell viability system was used to assess cell viability. ARPE-19 cells were seeded at 0.01 × 10^6 cells/well in 96 well plates and cultured with DMEM:F12 medium containing 10% FBS according to the vendor protocol. After 7 days, 90 µL of DMEM/F12 containing 0, 1, 5, 10, or 20 mg/mL of the HR97 was added. The cells (n = 5) were then incubated for 12 h, and viability was measured by adding 10 µL of PrestoBlue^TM HS cell viability reagents at 37 °C. After 0.5, 1, 2, 3, 4 and 5 h, absorbance (570 nm and 600 nm) was measured at 37 °C and normalized according to the protocol provided by the vendor.

[8] = Ocular safety evaluation / ocular grading after ICM injection; settings: rabbit, in vivo
Protocol: as §5

[9] = tested on: human cathepsins B, K, L, and S; assay: in vitro; settings: isolated enzyme cathepsin other, pH 5.5, cathepsin cleavage assay
[10] = tested on: melanin-induced ARPE-19 cells; assay: Cell-penetration (cell uptake) assay, melanin-induced ARPE-19; assay type: cell-based, human; settings: C-terminal biotinylated peptide 100 µM in pH 6.5 PBS, 6 h, 37 °C, 5 PBS washes, RIPA lysis, fluorescence biotin quantitation, n = 3
Protocol: Three 96 well plates per ARPE19 cell type group (melanin-induced or non-melanin induced) were seeded at 0.01 × 10^6 cells/well. ARPE-19 cells were either cultured with DMEM:F12 medium containing 10% FBS according to protocol provided by the vendor (non-melanin induced) or cultured in DMEM high glucose, pyruvate media with 250 µM of ferric ammonium citrate[107] for 2 months (melanin-induced)[20]. The expression of melanin was confirmed visually with bright field microscopy and by measuring absorbance at 475 nm (>0.4 arb. units)[20]. Within each plate, 12 wells were randomly selected to quantify the cell numbers with an automated cell counter (Countess 3 Automated Cell Counter, Thermo Fisher) for normalization in the cell uptake study. […] To quantify cell-associated peptides, the cells were lysed with 100 µL of RIPA lysis buffer at 4 °C for 48 h. The concentration of intracellular biotinylated peptides was analyzed with the Pierce™ Fluorescence Biotin Quantitation Kit. The mean intracellular concentration values of the three replicates were then grouped by cell types (melanin-induced or non-melanin induced), and a two-tailed Mann–Whitney U (Wilcoxon rank-sum) test was calculated using the wilcox.test function in R. The intracellular concentration values were also plotted against experimental melanin binding. […]

[11] = tested on: melanin nanoparticles (mNPs); assay: Melanin binding assay for machine learning model validation (RED device, biotin quantitation); parameters: species or system Sepia officinalis; settings: C-terminal biotinylated peptide 10 µM with mNPs, pH 6.5 PBS, RED 8K device, 24 h, 900 rpm; unbound peptide by fluorescence biotin quantitation; n = 4
Protocol: The mNPs were mixed with C-terminal biotinylated peptides (10 µM) in pH 6.5 PBS solution and incubated in the rapid equilibrium dialysis (RED) 8 K device for 24 h on an orbital shaker at 900 rpm. A total of 10 µL of the solution from the rapid dialysis reservoir was collected. The concentration of unbound biotinylated peptides was analyzed with the Pierce™ Fluorescence Biotin Quantitation Kit. Four sets of melanin binding assays were performed. Melanin binding was calculated as the difference in free peptide normalized with the starting peptide concentration. Experimental melanin binding values of the 127 peptide candidates were compared with the predicted melanin binding values with the Pearson correlation. Melanin binding predictions larger than 100% were cast to 100% because this was the maximum value in the melanin binding training set.

Brc1c(NC2=NCCN2)ccc2nccnc12 [brimonidine]
Relative binding of drugs to b-mNPs ([1]; replicate 1 of n = 3): 84.2618
Relative binding of drugs to b-mNPs ([1]; replicate 2 of n = 3): 102.105
Relative binding of drugs to b-mNPs ([1]; replicate 3 of n = 3): 167.093
EC50 in the aqueous humor [2]: 2.9 ng/mL (≈ 9.93 nM)
Relative binding of drugs to mNPs ([3]; replicate 1 of n = 3): 141.911
Relative binding of drugs to mNPs ([3]; replicate 2 of n = 3): 83.4707
Relative binding of drugs to mNPs ([3]; replicate 3 of n = 3): 74.618
brimonidine levels in eye tissues, Iris ([4]; 1 days, sample 1 (Male)): 11376.8
brimonidine levels in eye tissues, Iris ([4]; 1 days, sample 2 (Male)): 47581.5
brimonidine levels in eye tissues, Iris ([4]; 1 days, sample 3 (Female)): 23310.4
brimonidine levels in eye tissues, Iris ([4]; 7 days, sample 1 (Female)): 2210.2
brimonidine levels in eye tissues, Iris ([4]; 7 days, sample 2 (Female)): 5336.3
brimonidine levels in eye tissues, Iris ([4]; 7 days, sample 3 (Male)): 10576.6
brimonidine levels in eye tissues, Iris ([4]; 7 days, sample 4 (Male)): 7554.5
brimonidine levels in eye tissues, Iris ([4]; 14 days, sample 1 (Female)): 3473.6
brimonidine levels in eye tissues, Iris ([4]; 14 days, sample 2 (Female)): 5226.5
brimonidine levels in eye tissues, Iris ([4]; 14 days, sample 3 (Male)): 4493.7
brimonidine levels in eye tissues, Iris ([4]; 14 days, sample 4 (Male)): 711.1
brimonidine levels in eye tissues, Iris ([4]; 28 days, sample 1 (Male)): 1400.2
brimonidine levels in eye tissues, Iris ([4]; 28 days, sample 2 (Male)): 859.9
brimonidine levels in eye tissues, Iris ([4]; 28 days, sample 3 (Female)): 1137.6
brimonidine levels in eye tissues, Iris ([4]; 28 days, sample 4 (Female)): 522.1
brimonidine levels in eye tissues, Retina ([4]; 1 days, sample 1 (Male)): 23.3
brimonidine levels in eye tissues, Retina ([4]; 1 days, sample 2 (Male)): 64.6
brimonidine levels in eye tissues, Retina ([4]; 1 days, sample 3 (Female)): 636.9
brimonidine levels in eye tissues, Retina ([4]; 1 days, sample 4 (Female)): 1138.2
brimonidine levels in eye tissues, Retina ([4]; 7 days, sample 1 (Female)): 14.2
brimonidine levels in eye tissues, Retina ([4]; 7 days, sample 2 (Female)): 4.9
brimonidine levels in eye tissues, Retina ([4]; 7 days, sample 3 (Male)): 125.6
brimonidine levels in eye tissues, Retina ([4]; 7 days, sample 4 (Male)): 19.8
brimonidine levels in eye tissues, Retina ([4]; 14 days, sample 1 (Female)): 33.2
brimonidine levels in eye tissues, Retina ([4]; 14 days, sample 2 (Female)): 7.4
brimonidine levels in eye tissues, Retina ([4]; 14 days, sample 3 (Male)): 43
brimonidine levels in eye tissues, Retina ([4]; 14 days, sample 4 (Male)): 14.8
brimonidine levels in eye tissues, Retina ([4]; 28 days, sample 1 (Male)): 10.7
brimonidine levels in eye tissues, Retina ([4]; 28 days, sample 2 (Male)): 7.9
brimonidine levels in eye tissues, Retina ([4]; 28 days, sample 3 (Female)): 8.6
brimonidine levels in eye tissues, Retina ([4]; 28 days, sample 4 (Female)): 5.8
cumulative IOP change ([5]; rabbit 1, sex printed Female): 3.583
cumulative IOP change ([5]; rabbit 2, sex printed Male): -9.917
cumulative IOP change ([5]; rabbit 3, sex printed Female): 9.167
cumulative IOP change ([5]; rabbit 4, sex printed Male): 13.75
cumulative IOP change ([5]; rabbit 5, sex printed Female): 2.667
peak ΔIOP at 2 days ([5]; single ICM injection, 200 µg brimonidine equivalent, n = 5): −2.6 ± 1.65 mmHg
time for the mean ΔIOP to return to baseline ([5]; single ICM injection, n = 5 per group): 8 days
Binding Capacity (mole/mg melanin) [6]: 5e-8 mole/mg melanin
Kd [6]: 5.27 µM

FSGKRRKRKPR [HR97]
cytotoxicity in ARPE-19 cells [7]: no sign of cytotoxicity
Ocular grading, all 17 items (pupillary light reflex to Meibomian gland function) [8]: All values are zero
Ocular grading, all other scores of the 17 items [8]: 0
Ocular grading: Fluorescein staining (area) [8]: 1
Ocular grading: Fluorescein staining (severity) [8]: 1
ocular toxicity, ophthalmologist evaluation [8]: no ocular toxicity was observed
remaining at 48 h, 100 µM [9]: 87.7%

YGRKKRRQRRR [TAT47–57]
cell uptake (intracellular peptide concentration) [10]: 457.1 ± 34.2 pmol/100 K cells
melanin binding (bound fraction) [11]: 77.6 ± 1.5%
